This is an account of results in patent EP2100602A1, “Method and compositions suitable for treatment of wounds” (QuoNova Europe GmbH, priority 2008, dated 2009).

This assay relates to Pseudomonas aeruginosa. Kind of assay: Porcine second degree burn wound model infected with Pseudomonas aeruginosa; flush culture (planktonic) and scrub culture (biofilm) counts. Particulars: pig burn wounds; for reduction of counts of planktonic P. aeruginosa: ointment without SSD; for reduction of biofilm bacteria: treatment within 20 minutes of inoculation, compared to the vehicle control, SSD not printed for these labels. The class given is in vivo.

The mark [1] stands for this setting: used within 20 minutes of wound inoculation.

Consider `Cn1nc(C(C)(C)C)cc1C(=O)NNC(=O)c1ccc(Cl)s1` [Compound 1], for which the “reduction of biofilm bacteria” value is on record as 2 Log. Also, the “reduction of counts of planktonic P. aeruginosa” value (used on established biofilms) is given as “largest reduction”. In addition, the “reduction of counts of planktonic P. aeruginosa” value under setting [1] was “largest reduction”. In addition, the “reduction of biofilm P. aeruginosa” value (without SSD, used within 20 minutes) is on record as 1 Log.
On to `CCCCCCCCCC(=O)CC(=O)Nc1cc(C)ns1` [Compound 2], for which the “reduction of biofilm bacteria” value is 1.5 Log. The “reduction of counts of planktonic P. aeruginosa” value under setting [1] is on record as “lower counts”.
As for `CCCCCCCCCC(=O)CC(=O)N(C)c1ccc(F)cc1` [Compound 3], the “reduction of counts of planktonic P. aeruginosa” value under setting [1] is listed as “lower counts”.
